Numbers after ± are expanded uncertainties.
Conditions: Liquid, Closed cell (Static) method

Row | SMILES | vapor or sublimation pressure (258.15 K) | vapor or sublimation pressure (263.15 K) | vapor or sublimation pressure (273.15 K) | vapor or sublimation pressure (283.15 K)
1 | FC(F)C(F)F [1,1,2,2-tetrafluoroethane] | 124.3 ± 1.1 kPa | 153 ± 1.1 kPa | 225.9 ± 1.2 kPa | 323.4 ± 1.5 kPa
2 | FC(F)(F)I [trifluoroiodomethane] | 133 ± 1.1 kPa | 160.4 ± 1.1 kPa | 228.4 ± 1.2 kPa | 316.4 ± 1.4 kPa
